This is an account of results in PubChem BioAssay AID1996.

Values after ≈ are worked out from the molar mass of the structure shown.

Usually solubility (kinetic) stands for the concentration staying in solution when a stock, usually in DMSO, is diluted into the medium.

The conditions of the series: buffer; pH 7.4; 200.0 µM.
Molecule `CC(C)(C)CN1CCN(Cc2cccnc2)CC1CCO` (centres undefined) registered a kinetic solubility of over 43.7 µg/mL. For `CS(=O)(=O)N1CCN(c2ccc([N+](=O)[O-])cc2C(F)(F)F)CC1`, the kinetic solubility came to 39.9 µg/mL (≈ 113 µM). As for `COC(=O)c1cn(C(=O)c2cccc3ccccc23)c2ccccc12`, the figure is under 0.7 µg/mL. The result for `Cc1nc(-c2cc(C#N)c(=O)[nH]c2C)cs1` reads over 34.7 µg/mL. Turning to `COCCCNC(=O)c1c(N)n(Cc2ccco2)c2nc3ccccc3nc12`, the solubility (kinetic) worked out at 4.8 µg/mL (≈ 12.7 µM). Molecule `COCc1c(C(=O)OCC(=O)NCc2ccco2)oc2ccccc12` registered a kinetic solubility of 48 µg/mL (≈ 140 µM). The result for `CCOc1ccc(N)cc1OC.Cl` reads over 30.6 µg/mL. As for `CCc1ccc(C(=O)NNC(=O)[C@H](C)NC(=O)c2ccco2)cc1`, the figure is over 49.4 µg/mL. As to `CCc1cc2c(CN(C)Cc3ccccc3F)cc(=O)oc2cc1O`, the kinetic solubility is 9.5 µg/mL (≈ 27.8 µM). As for `CN(C)CCCN(C(=O)c1ccco1)c1nc2ccc(F)cc2s1.Cl`, the figure is 55 µg/mL; as for `O=C(COC(=O)Cc1ccc(Cl)cc1)NCc1cccs1`, 35.1 µg/mL (≈ 108 µM); as for `CC(C)Oc1nc(-c2ccc(Cl)cc2)nc2ccccc12`, under 0.3 µg/mL. Consider `COc1ccccc1CN(C)CC(=O)Nc1cccc2ccccc12`, for which the kinetic solubility stood at 18.9 µg/mL (≈ 56.5 µM). As for `CCC(C)c1ccc(NC(=O)N2CCOCC2)cc1` (centres undefined), the solubility (kinetic) turned out to be 37.4 µg/mL (≈ 143 µM).

In the case of `Cc1nnc(NC(=O)CCNC(=O)c2ccccc2Cl)s1`, the solubility (kinetic) is over 48.7 µg/mL. On to `O=C(CCC(=O)Nc1ccccc1)N/N=C/c1cccnc1`, for which the kinetic solubility was over 44.4 µg/mL. As to `Cc1ccc(C2=N/C(=C\c3cccc(F)c3)C(=O)O2)cc1`, the solubility (kinetic) was under 0.6 µg/mL. For `CCC(C(=O)NCCc1ccccc1)c1ccccc1` (centres undefined), the solubility (kinetic) is over 40.1 µg/mL.

In the case of `Cc1ccc(S(=O)(=O)NC2CCCCCC2)cc1`, the kinetic solubility is over 40.1 µg/mL. The result for `CC(C)[C@H](NC(=O)NC1CCN(Cc2ccccc2)CC1)C(=O)O` reads 19.8 µg/mL (≈ 59.4 µM); that for `Cc1n[nH]c(=S)n1-c1ccc(Cl)cc1`, over 33.9 µg/mL.

In the case of `O=C(COC(=O)Cc1ccccc1F)NCCc1ccccc1`, the solubility (kinetic) is over 47.3 µg/mL.

The molecule `O=C(COc1ccc(Cl)cc1Cl)NCC1(N2CCOCC2)CCCCC1` showed a kinetic solubility of 1.9 µg/mL (≈ 4.73 µM). Molecule `CCOC(=O)N1CCN(C(=S)NC(=O)C2CCCC2)CC1` gave a kinetic solubility of over 47 µg/mL. `CC(C(=O)Nc1ccc(F)c(F)c1F)N(C)CCOc1ccccc1` (centres undefined) yielded a solubility (kinetic) of 13.6 µg/mL (≈ 38.6 µM). Take `CC(C)(C)NC(=O)C1CCC(CNc2c(N3CCCCC3)c(=O)c2=O)CC1` (centres undefined): the solubility (kinetic) was over 56.3 µg/mL. In the case of `O=c1c2oc3ccccc3c2ncn1Cc1ccc(F)cc1`, the solubility (kinetic) was determined as 0.8 µg/mL (≈ 2.72 µM). In turn, `CC(C)OCCCNC(=O)C1CCN(S(=O)(=O)N2CCCC2)CC1` showed a solubility (kinetic) of over 54.2 µg/mL. The molecule `O=C(c1ccccc1Br)N1CCc2c([nH]c3ccccc23)C1` yielded a solubility (kinetic) of 14.9 µg/mL (≈ 41.9 µM). `Cc1ccc(CNC(=O)CCc2cn(C)c3ccccc23)cc1`: the solubility (kinetic) is 5.1 µg/mL (≈ 16.6 µM). Take `O=C1NC(c2ccc(Br)cc2)Nc2ccccc21` (centres undefined): the solubility (kinetic) was 9 µg/mL (≈ 29.7 µM).

For `CCCCCNC(=O)[C@@H]1CSC2c3ccccc3C(=O)N21` (some centres undefined), the solubility (kinetic) was 27.7 µg/mL (≈ 91 µM). As for `CC(=NCC1CCCO1)c1c(O)n(C2CCCCC2)c(=O)[nH]c1=O` (centres undefined), the kinetic solubility was over 50.3 µg/mL. In the case of `CCN(CC)C(=O)CN1C(=O)NC2(CCc3ccccc3C2)C1=O` (centres undefined), the kinetic solubility is over 49.4 µg/mL. As for `CCCCn1c(NCc2ccncc2)nc2ccccc21`, the kinetic solubility was 39.4 µg/mL (≈ 141 µM). `Cc1c(C(=O)Nc2ccc(Nc3ccccc3)cc2)cccc1[N+](=O)[O-]`: the kinetic solubility worked out at 1.3 µg/mL (≈ 3.74 µM). As to `OCC1CCCCN1C(=S)Nc1cccc(Cl)c1` (centres undefined), the kinetic solubility was over 42.7 µg/mL.

In turn, `O=C(COC(=O)c1ccc2ccccc2n1)c1ccc(F)cc1` had a kinetic solubility of 16.8 µg/mL (≈ 54.3 µM). `CCn1ccnc1CN(C)Cc1nc(-c2cccc(Cl)c2)no1` had a solubility (kinetic) of 37.8 µg/mL (≈ 114 µM). As for `COc1ccc(-c2csc3ncnc(NCCCO)c23)cc1`, the figure is 42.2 µg/mL (≈ 134 µM); as for `COCCn1c(C)cc(C(=O)COC(=O)c2cccnc2SC)c1C`, 5.2 µg/mL (≈ 14.3 µM); as for `O=[N+]([O-])c1cccc(/C=C/c2ccncc2)c1`, 11.9 µg/mL (≈ 52.6 µM). In the case of `O=C(Nc1ccc(N2CCOCC2)cc1)c1ccc2ncsc2c1`, the solubility (kinetic) was found to be 10.1 µg/mL (≈ 29.8 µM).

The molecule `CCCCOP(=O)(OCCCC)C(O)c1ccc(N(C)C)cc1` (centres undefined) gave a kinetic solubility of over 51.5 µg/mL.

In the case of `O=C(COC(=O)c1ccccc1F)NC1CCCC1`, the solubility (kinetic) is over 39.8 µg/mL. `O=S(=O)(Nc1ccccc1O)c1ccc(-c2ccccc2)cc1` showed a solubility (kinetic) of 12.3 µg/mL (≈ 37.8 µM). `O=C(Cc1ccccc1)Nc1cc([N+](=O)[O-])ccc1N1CCOCC1`: the solubility (kinetic) turned out to be 9.8 µg/mL (≈ 28.7 µM).

Molecule `FC(F)(F)c1ccnc(NCc2ccc(Cl)cc2)n1` showed a solubility (kinetic) of 4.3 µg/mL (≈ 14.9 µM).

The molecule `Cc1ccc(C(=O)O)cc1NC(=O)CSc1nnc(-c2ccccc2F)n1C1CCCCC1` had a kinetic solubility of over 70.3 µg/mL. As for `COc1ccc([C@@H]2Sc3ccccc3NC(=O)[C@@H]2O)cc1`, the figure is 6.2 µg/mL (≈ 20.6 µM). Molecule `Nc1nc2cc(S(=O)(=O)N3CCOCC3)ccc2o1` displayed a solubility (kinetic) of over 42.5 µg/mL. `Cc1ccc(SC(C)C(=O)NCc2ccc(F)cc2)cc1` (centres undefined) showed a kinetic solubility of 8.2 µg/mL (≈ 27 µM). Turning to `COc1ccccc1N(CC(=O)Nc1cc(S(=O)(=O)N(C)C)ccc1C)S(=O)(=O)c1cccs1`, the solubility (kinetic) worked out at 14.4 µg/mL (≈ 27.5 µM). For the molecule `O=C(Nc1ccc(NC(=O)c2ccccc2F)cc1)c1ccccc1F`, the kinetic solubility is under 0.4 µg/mL. In turn, `Cc1nnc(N)s1` came in with a kinetic solubility of over 17.3 µg/mL.

In turn, `CC(C)c1ccc(/C=C/c2[nH]c(=O)[nH]c(=O)c2[N+](=O)[O-])cc1` returned a kinetic solubility of 19.3 µg/mL (≈ 64.1 µM).

`COc1ccc(N2CC(NC(=O)Nc3ccccc3)CC2=O)cc1` (centres undefined) had a kinetic solubility of 19.7 µg/mL (≈ 60.5 µM). On to `Cc1ccc(S(=O)(=O)CC(=O)c2ccc([N+](=O)[O-])cc2)cc1`, for which the solubility (kinetic) is 9.1 µg/mL (≈ 28.5 µM).

As for `CC(=O)Nc1ccccc1OCc1cnc(Cl)s1`, the kinetic solubility was over 42.4 µg/mL.

As to `Cc1ccc(OCC(=O)Nc2ccc3c(c2)CCC3)c([N+](=O)[O-])n1`, the solubility (kinetic) was 2.1 µg/mL (≈ 6.42 µM). Molecule `CC(C)CN1C(=O)c2ccc(NC(=O)c3ccco3)cc2C1=O` yielded a solubility (kinetic) of 4.2 µg/mL (≈ 13.4 µM). Regarding `CN(C)C(=S)Nc1cccc(F)c1`, the kinetic solubility came to 28.5 µg/mL (≈ 144 µM). `COC(=O)CNC(=O)COC(=O)c1ccc(Cl)nc1` gave a kinetic solubility of over 43 µg/mL. `CCOc1ccc([N+](=O)[O-])cc1CNC1CCCCCCC1.Cl` yielded a solubility (kinetic) of over 51.4 µg/mL. In turn, `Cc1ccsc1C1C(C#N)=C(N)OC2=C1C(=O)CC(C)C2` (centres undefined) gave a solubility (kinetic) of 38.7 µg/mL (≈ 129 µM).

Molecule `CC(C)(C)c1ccc(NC(=O)CON=C(N)c2ccccc2)cc1` gave a solubility (kinetic) of 3.8 µg/mL (≈ 11.7 µM). In the case of `Cn1ccnc1SCC(=O)NCC(=O)Nc1ccc(F)c(F)c1F`, the kinetic solubility was over 53.7 µg/mL.

For `Cn1c(/C=C/c2ccc(Br)cc2)nc2ccccc2c1=O`, the kinetic solubility is under 0.4 µg/mL.

In turn, `O=C(NC12CC3CC(CC(C3)C1)C2)c1cccc(OC(F)F)c1` came in with a kinetic solubility of 16.7 µg/mL (≈ 52 µM). In turn, `Cc1csc(SCC(=O)NC(C)c2ccc(F)cc2)n1` (centres undefined) returned a solubility (kinetic) of 38.8 µg/mL (≈ 125 µM). The molecule `O=C(O)CCC(=NNC(=O)c1cccc(S(=O)(=O)N2CCCCC2)c1)c1ccccc1` returned a solubility (kinetic) of over 66.5 µg/mL. In the case of `Cc1nn(CC(=O)NCc2ccccc2)c(=O)c2cccn12`, the kinetic solubility was over 44.4 µg/mL.

Take `Cn1c(N)c(C(C[N+](=O)[O-])c2c(F)cccc2Cl)c(=O)n(C)c1=O` (centres undefined): the solubility (kinetic) was over 53.5 µg/mL. On to `N/C(=N\OC(=O)CC1CCCCC1)c1cccc(Br)c1`, for which the kinetic solubility came out at 0.6 µg/mL (≈ 1.77 µM).

For the molecule `Cn1cc2cc(NC(N)=S)ccc2n1`, the kinetic solubility was over 30.9 µg/mL. `CC(c1ccccc1)c1nnc(N)s1` (centres undefined) gave a kinetic solubility of over 30.8 µg/mL. In the case of `Cc1c(N)cc(N)cc1C(=O)O`, the kinetic solubility is over 24.9 µg/mL. Take `O=C(Nc1ccccc1Cl)NC1CCCCCCC1`: the kinetic solubility was found to be 0.4 µg/mL (≈ 1.42 µM).

As for `Cc1cc(C)cc(N=C2NC(=O)CS2)c1`, the solubility (kinetic) was over 33 µg/mL. As to `N#Cc1ccc(COC(=O)c2cccnc2Cl)cc1`, the solubility (kinetic) worked out at 26.9 µg/mL (≈ 98.6 µM). As to `COc1ccccc1C(=O)C1CCCN(C(=O)c2ccco2)C1` (centres undefined), the solubility (kinetic) was over 47 µg/mL. As for `CC(OC(=O)CNC(=O)C1CCCCC1)C(=O)NCc1ccccc1` (centres undefined), the figure is over 52 µg/mL; as for `O=C(NCc1ccc2c(c1)OCO2)c1sccc1Br`, 48.4 µg/mL (≈ 142 µM); as for `O=C(NC(=S)NC1CCCC1)c1ccccc1`, 16.9 µg/mL (≈ 68 µM). As for `Cc1ccc(CCC(=O)Nc2ccc([N+](=O)[O-])cc2Cl)o1`, the kinetic solubility was 7.5 µg/mL (≈ 24.3 µM). As for `COc1cccc2[nH]c3c(N4CCc5ccccc5C4)ncnc3c12`, the solubility (kinetic) was determined as 0.9 µg/mL (≈ 2.72 µM). As to `O=C(NC1CC1)C1CCCN1C(=O)NC1CCCCC1` (centres undefined), the kinetic solubility was over 41.9 µg/mL. The molecule `O=C(CN1C(=O)c2ccccc2S1(=O)=O)N1CCCCC1` had a kinetic solubility of over 46.3 µg/mL.

As for `COc1ccc(C(=O)O/N=C(\N)c2ccc(Cl)cc2)cc1`, the kinetic solubility was determined as 0.4 µg/mL (≈ 1.31 µM).

In the case of `COc1ccccc1CN1CCCCCC1.O=C(O)C(=O)O`, the solubility (kinetic) stood at 40.8 µg/mL. The result for `N#CC(=C=[N-])c1nc2ccccc2nc1-[n+]1ccccc1` reads 7.3 µg/mL (≈ 26.9 µM).

`CCOC(=O)C1=C(O)/C(=C\c2cc(C)n(-c3ccccc3F)c2C)N=C1C`: the kinetic solubility was determined as 32.6 µg/mL (≈ 88.5 µM). Molecule `Cc1cc[n+](Cc2ccc([N+](=O)[O-])cc2)cc1.[Br-]` came in with a solubility (kinetic) of over 46.4 µg/mL. As for `CC(C)Oc1cccc(C(=O)NC2=NCCS2)c1`, the figure is 22 µg/mL (≈ 83.2 µM); as for `Cc1ccc2nc(SCC(=O)NC3CCS(=O)(=O)C3)[nH]c2c1` (centres undefined), 48.3 µg/mL (≈ 142 µM); as for `N#C/C(=C\Nc1ccc(Cl)cn1)S(=O)(=O)c1ccccc1`, under 0.2 µg/mL. As for `CCc1nc2ccccc2n1CC(=O)Nc1cc(C)on1`, the figure is over 42.6 µg/mL; as for `CN(C)CCn1c(COc2ccccc2)nc2ccccc21.Cl.O`, over 60.7 µg/mL. For the molecule `O=C(NCC(=O)N1CCCC1)c1ccc(Br)cc1`, the solubility (kinetic) was over 46.7 µg/mL. As for `O=C(NCC(=O)N1CCCC(C(F)(F)F)C1)c1ccc(Oc2ccccc2)cc1` (centres undefined), the kinetic solubility turned out to be 36.3 µg/mL (≈ 89.3 µM).

In turn, `CC(=O)N1CCN(C(=O)CNC(=O)c2cccs2)CC1` registered a kinetic solubility of over 44.3 µg/mL. In the case of `O=C(O)c1cccc2c1C(=O)N(Cc1ccccc1)C2`, the kinetic solubility was over 40.1 µg/mL. On to `Cc1ccc(NC(=O)Cc2c(O)c3ccccc3[nH]c2=O)c(C)c1`, for which the kinetic solubility came to 23 µg/mL (≈ 71.3 µM).

The molecule `CC1CCCCC1NC1=NCCCS1` (centres undefined) showed a kinetic solubility of over 31.9 µg/mL.
